Test results: patent publication US9884816B2, “Sulforaphane-derived compounds, production method thereof and the medical, food and cosmetic use of same” (Consejo Superior De Investigaciones Científicas (CSIC), priority 2012, dated 2018)

Legend:
[1] = tested on: MRC-5 (fetal lung fibroblasts); experiment: Cytotoxicity curve, MRC-5 cell line; assay type: cell-based; details: mean ± SEM, at least 3 independent experiments
Method: (§1) FIG. 5. Curve of cytotoxicity of the compounds 15S, and 15R, at four different concentrations ([…]) in comparison with Sigma-Aldrich® sulphoraphane at five different concentrations ([…]) for the cell lines A-549 (human lung adenocarcinoma) and MRC-5 (fetal lung fibroblasts), showing IC50 for all the products in each of the cell lines used in the test, expressed as mean±standard error (SEM) of all the tests conducted. Each diagram represents at least 3 independent experiments and both within them and for each value of IC50, the result of statistical analysis is indicated for the t-test with the p-value. The t-test indicates whether two values have a significant difference from the statistical standpoint. A p-value above 0.05 is not regarded as statistically significant and is not represented by any symbol, a p-value below 0.05 indicates statistical significance and is indicated with an asterisk (*), and then if p is below 0.01 it is indicated with two asterisks, and with three if it is below 0.001.

[2] = tested on: A-549 (human lung adenocarcinoma); experiment: Cytotoxicity curve, A-549 cell line; assay type: cell-based; details: mean ± SEM, at least 3 independent experiments
Method: as §1

| Compound | IC50 [1] [µM] | IC50 [2] [µM] |
| --- | --- | --- |
| C[S@@+]([O-])CCCCN=C=S (racemic) [SF, (Rs)-1-isothiocyanato-4-(methylsulphinyl)-butane] | 46.6 ± 2.19 | 19.6 ± 2.27 |
| C[S+]([O-])CCCCN=C=S (centres unmarked) [SF Sigma ®] | 30.5 ± 2.02 | 16.5 ± 3.05 |
| C[S@+]([O-])CCOCCOCCN=C=S [SF 15Ss, (S)-(+)-8-Isothiocyanato-3,6-dioxaoctanylmethyl sulphoxide] | 58.3 ± 6.54 | 22.7 ± 0.69 |
| (R)-(−)-8-Isocyanato-3,6-dioxaoctanylmethyl sulphoxide [SF 15Rs] | 67.3 ± 6.25 | 29.4 ± 3.89 |
